# Data from patent US12630498B2 (Genzyme Corporation, priority 2019, dated 2026).
# Biological target: T1, human Cystic Fibrosis Transmembrane Conductance Regulator (CFTR) harboring the ΔF508 mutation (Homo sapiens, UniProt P13569, DEL508-508)
# T1 construct: expressed in transfected cells; host or cells: H441 carcinoma line (G418-selected)
# Assay: H441 cell ΔF508-CFTR-HRP cell surface assay (Emax and EC50)
# Assay type: cell-based
# Details: for Emax: NCI-H441, NA = Not active
# Excerpt: Example 315: H441 Cell Emax and EC50 Two cell lines were used, the H441 carcinoma line and the CFHBE41o- (41o-) human bronchial epithelial line. Both cell lines expressed human Cystic Fibrosis Transmembrane Conductance Regulator (CFTR) harboring the ΔF508 mutation and with an in-frame fusion in CFTR extracellular loop 4 of Horse Radish Peroxidase (HRP) under control of the CMV promoter. In the presence of the HRP tag, ΔF508-CFTR transported to the cell surface was detectable upon addition of an HRP substrate (Luminata Forte). Both cell types were cultivated at 37° C. with CO2. […] For both cell types, the medium was changed every other day unless the culture was at low % confluence. Cells were used for the assays at 75% confluence. To a polypropylene (PP) 384-well plate, 15 pls DMSO was added to all wells in columns 1-22 and 24 (low Control). 15 μls of 260 μM VX809 (Lumacaftor), Selleckchem […], was added to column 23 wells (high Control). 15 pls of 10 mM test compound or VX809 (control) were added to wells of row A. Serial dilutions of Row A compound were performed 2×15 pls in rows A through 0 (15-point). A PP, 384-well plate containing the appropriate cell culture medium was prepared for each assay plate with 100 pls per well. For the doxycycline-induced 41o-cells, doxycycline for both the assay plate and the medium dilution plate was added at 0.0005 mg/ml to the medium. Both cell lines were plated for the assay at 30 pls per 384-well at 3.4×10 e^5 cells per ml ( 10K cells/well). H441 cells were plated on opaque, white, Corning plate 3704. 41o-cells were plated on collagen-coated opaque, white, Corning plate 356665. For 41o-cells, doxycycline was added to the medium. Using FX (Beckman) protocol, 10 pls diluted compound or medium was added per well to the Assay Plate as: 2 pls DMSO Dilution plate well was diluted in 100 pls of the Medium Dilution Plate well, mixed, and 10 pls was transferred to the Assay Plate. The final assay dilution series was 24.5, 12.3, 6.1, 3.1, 1.5, 0.8, 0.4, 0.2, 0.1, 0.05, 0.02, 0.01, 0.006, 0.003, 0.001 and 0 μM. The 41o-assay plates were incubated at 37° C. w/CO2, the H441 assay plates were incubated at 27° C. w/CO2, each overnight for two nights. After being brought to room temperature, the assay plate liquid was removed. 30 uls of Luminata Forte (Millipore ELLUF0100) was added per well and incubated at room temperature for 10 min. The plates were then read on a Topcount, protocol LumiMatti (CPS, luminescence). The data was analyzed for % of maximum, maximum VX809 signal, and EC50 using Pearl and SPEED tools.
# T1 sequence (P13569 with tags, fused parts or gaps DEL508-508): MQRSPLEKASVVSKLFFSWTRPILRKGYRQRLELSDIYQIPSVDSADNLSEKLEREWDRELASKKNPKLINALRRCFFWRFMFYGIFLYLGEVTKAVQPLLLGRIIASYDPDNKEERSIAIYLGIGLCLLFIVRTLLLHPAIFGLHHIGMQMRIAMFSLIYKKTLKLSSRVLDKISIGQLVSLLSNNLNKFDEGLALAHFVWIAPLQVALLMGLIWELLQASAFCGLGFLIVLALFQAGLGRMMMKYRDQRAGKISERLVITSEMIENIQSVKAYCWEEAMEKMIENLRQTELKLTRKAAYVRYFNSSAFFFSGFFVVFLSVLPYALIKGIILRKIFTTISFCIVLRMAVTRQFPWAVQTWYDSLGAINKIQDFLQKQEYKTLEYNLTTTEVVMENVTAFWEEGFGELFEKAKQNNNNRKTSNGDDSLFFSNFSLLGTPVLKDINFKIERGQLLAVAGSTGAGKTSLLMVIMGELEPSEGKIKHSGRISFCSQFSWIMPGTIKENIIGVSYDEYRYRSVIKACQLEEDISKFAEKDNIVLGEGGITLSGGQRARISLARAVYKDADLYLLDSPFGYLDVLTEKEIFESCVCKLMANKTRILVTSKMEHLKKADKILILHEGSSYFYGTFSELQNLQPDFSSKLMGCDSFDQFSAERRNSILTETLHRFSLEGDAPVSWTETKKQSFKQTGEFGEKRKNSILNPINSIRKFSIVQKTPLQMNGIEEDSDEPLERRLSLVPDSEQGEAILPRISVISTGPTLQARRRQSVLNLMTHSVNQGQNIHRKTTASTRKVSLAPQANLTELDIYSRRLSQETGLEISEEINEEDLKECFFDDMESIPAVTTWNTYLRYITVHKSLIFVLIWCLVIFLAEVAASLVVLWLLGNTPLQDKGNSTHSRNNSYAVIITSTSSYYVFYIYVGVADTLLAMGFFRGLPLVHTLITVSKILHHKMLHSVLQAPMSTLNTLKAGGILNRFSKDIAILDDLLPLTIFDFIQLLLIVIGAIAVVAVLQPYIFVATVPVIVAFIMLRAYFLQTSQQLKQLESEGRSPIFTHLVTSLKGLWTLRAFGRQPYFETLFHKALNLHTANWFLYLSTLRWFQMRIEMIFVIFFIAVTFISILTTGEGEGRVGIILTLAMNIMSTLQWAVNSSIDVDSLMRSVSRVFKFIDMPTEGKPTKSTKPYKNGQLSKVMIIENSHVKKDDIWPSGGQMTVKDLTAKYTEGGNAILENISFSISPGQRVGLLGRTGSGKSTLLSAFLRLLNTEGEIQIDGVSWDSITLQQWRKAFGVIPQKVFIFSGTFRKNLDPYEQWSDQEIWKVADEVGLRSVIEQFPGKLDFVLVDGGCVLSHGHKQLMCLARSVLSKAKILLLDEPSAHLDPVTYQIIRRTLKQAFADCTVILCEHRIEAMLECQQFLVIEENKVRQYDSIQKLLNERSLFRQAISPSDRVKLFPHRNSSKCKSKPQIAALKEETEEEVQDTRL
SMILES,EC50 [nM],Emax [%]
"CC(C)(C)OC(=O)C[C@H](NC(=O)c1ccc2ccccc2c1OCc1ccc(C(F)(F)F)cc1)C(=O)O (stereo in doubt) [Example 151, 4-(tert-butoxy)-4-oxo-2-(1-((4-(trifluoromethyl)benzyl)oxy)-2-naphthamido)butanoic Acid]",13400,68.7
"CC(C)(C)[C@H](NC(=O)c1ccc2ccccc2c1OCc1ccc(C(F)(F)F)cn1)C(=O)O [Example 2, (S)-3,3-dimethyl-2-(1-((5-(trifluoromethyl)pyridin-2-yl)methoxy)-2-naphthamido)butanoic Acid]",4800,151
"O=C(N[C@H](C(=O)O)C12CC(C(F)(F)F)(C1)C2)c1ccc2ccccc2c1OCc1ccc(S(=O)(=O)C(F)(F)F)cc1 [Example 3, (S)-2-(3-(trifluoromethyl)bicyclo[1.1.1]pentan-1-yl)-2-(1-((4-((trifluoromethyl)sulfonyl)benzyl)oxy)-2-naphthamido)acetic Acid]",2200,18.1
"O=C(N[C@H](C(=O)O)C12CC(C(F)(F)F)(C1)C2)c1ccc2cc(F)ccc2c1OCc1ccc(OC(F)(F)F)cc1 [Example 4, (S)-2-(6-fluoro-1-((4-(trifluoromethoxy)benzyl)oxy)-2-naphthamido)-2-(3-(trifluoromethyl)bicyclo[1.1.1]pentan-1-yl)acetic Acid]",700,37.2
"CC(C)(c1ccccc1)[C@H](NC(=O)c1ccc2cc(F)ccc2c1OCC1CCC(F)(F)CC1)C(=O)O [Example 7, (S)-2-(1-((4,4-difluorocyclohexyl)methoxy)-6-fluoro-2-naphthamido)-3-methyl-3-phenylbutanoic Acid]",2400,51.9

# Continued, values first:
EC50 [nM],Emax [%],SMILES
,10.6,"CC(OCc1ccccc1)[C@H](NC(=O)c1ccc2cc(F)ccc2c1OCc1ccc(OC(F)(F)F)cc1)C(=O)O (stereo in doubt) [Example 192, O-benzyl-N-(6-fluoro-1-((4-(trifluoromethoxy)benzyl)oxy)-2-naphthoyl)-L-allothreonine]"
5700,89.9,"CC(OCc1ccccc1)[C@H](NC(=O)c1ccc2cc(F)ccc2c1OCc1nc2ccccc2s1)C(=O)O (stereo in doubt) [Example 215, N-(1-(benzo[d]thiazol-2-ylmethoxy)-6-fluoro-2-naphthoyl)-O-benzyl-L-allothreonine]"
1700,48.4,"O=C(N[C@H](C(=O)O)C12CC(C(F)(F)F)(C1)C2)c1ccc2cc(F)ccc2c1OCc1ccc(C(F)(F)F)cc1 [Example 15, (S)-2-(6-fluoro-1-((4-(trifluoromethyl)benzyl)oxy)-2-naphthamido)-2-(3-(trifluoromethyl)bicyclo[1.1.1]pentan-1-yl)acetic Acid]"
300,63.6,"CC(C)(c1ccccc1)[C@H](NC(=O)c1ccc2cc(F)ccc2c1OCc1ccc(SC(F)(F)F)cc1)C(=O)O [Example 22, (S)-2-(6-fluoro-1-((4-((trifluoromethyl)thio)benzyl)oxy)-2-naphthamido)-3-methyl-3-phenylbutanoic Acid]"
9800,29.2,"CC(C)(c1ccccc1)[C@H](NC(=O)c1ccc2ccccc2c1OCc1ccc(S(C)(=O)=O)cc1)C(=O)O [Example 23, (S)-3-methyl-2-(1-((4-(methylsulfonyl)benzyl)oxy)-2-naphthamido)-3-phenylbutanoic Acid]"
1100,66.1,"O=C(N[C@H](C(=O)O)C12CC(C(F)(F)F)(C1)C2)c1ccc2ccccc2c1OCc1ccc(S(F)(F)(F)(F)F)cc1 [Example 24, (S)-2-(1-((4-(pentafluoro-λ^6-sulfanyl)benzyl)oxy)-2-naphthamido)-2-(3-(trifluoromethyl)bicyclo[1.1.1]pentan-1-yl)acetic Acid]"
,27.8,"CC(C)(C)[C@H](NC(=O)c1ccc2ccccc2c1OCC1CCC(CO)CC1)C(=O)O (stereo partly drawn) [Example 29, (S)-2-(1-((4-(hydroxymethyl)cyclohexyl)methoxy)-2-naphthamido)-3,3-dimethylbutanoic Acid]"
